US9357779B2 (priority 2010, dated 2016)

Assays:
[1] = physchem
Protocol: (§1) Calibration was carried out using unbranched alkan-2-ones (having from 3 to 16 carbon atoms) with known log P values (the log P values were determined by the retention times using linear interpolation between two successive alkanones).

[2] = for log P [a][d]: pH 2.7, major isomer; for log P [a][e]: pH 2.7, minor isomer; for log P [a]: acidic range, pH 2.7, 0.1% aqueous formic acid/acetonitrile
Protocol: as §1

[3] = test system: Phytophthora infestans; type: in vivo; details: tomato plants, protective, active compound concentration 500 ppm, evaluation 7 days after inoculation
[4] = pH 2.7, log P [a], acidic range, pH 2.7, 0.1% aqueous formic acid/acetonitrile

O=C(CC1CCCCC1)c1csc(C2CCNCC2)n1 [II-1, 4-[4-(Cyclohexylacetyl)-1,3-thiazol-2-yl]piperidinium chloride]
chromatographic logP ([1]; pH 2.7): 1.35

Cc1cc(C(F)(F)F)nn1CC(=O)N1CCC(c2nc(C(=O)/C=C/c3c(F)cccc3F)cs2)CC1 [Compound I-12, (2E)-3-(2,6-Difluorophenyl)-1-[2-(1-{[5-methyl-3-(trifluoromethyl)-1H-pyrazol-1-yl]acetyl}piperidin-4-yl)-1,3-thiazol-4-yl]prop-2-en-1-one]
chromatographic logP [1, 4]: 3.83

C#CCOc1ccccc1C(C=Cc1csc(C2CCN(C(=O)Cn3nc(C(F)F)cc3C(F)F)CC2)n1)=NO (mixture of isomers) [Compound I-64]
log P [a][d] [2]: 3.08^[a][d];
log P [a][e] [2]: 3.30^[a][e]

CON(C)C(=O)c1csc(C2CCN(C(=O)OC(C)(C)C)CC2)n1 [Compound V-1, tert-Butyl 4-{4-[methoxy(methyl)carbamoyl]-1,3-thiazol-2-yl}piperidine-1-carboxylate]
chromatographic logP ([1]; pH 2.7): 2.4

COc1cccc(OC)c1C(=O)/C=C/c1csc(C2CCN(C(=O)Cn3nc(C(F)F)cc3C(F)F)CC2)n1 [Compound I-39]
log P [a] [2]: 3.04^[a]
efficacy [3]: 90%

Cc1cc(C(F)(F)F)nn1CC(=O)N1CCC(c2nc(C#CC(=O)c3cccs3)cs2)CC1 [Compound I-9]
log P [a] [2]: 3.29^[a]

COc1ccc(C(=O)C#Cc2csc(C3CCN(C(=O)Cn4nc(C(F)(F)F)cc4C)CC3)n2)cc1 [Compound I-7]
log P [a] [2]: 3.54^[a]

Cc1cc(C(F)(F)F)nn1CC(=O)N1CCC(c2nc(C#CC(=O)c3ccccc3)cs2)CC1 [Compound I-1]
log P [a] [2]: 3.58^[a]

CC(C)(C)OC(=O)N1CCC(c2nc(/C=C/C(=O)c3c(F)cccc3F)cs2)CC1 [IV-3, tert-Butyl 4-[4-[(1E)-3-(2,6-difluorophenyl)-3-oxoprop-1-en-1-yl]-1,3-thiazol-2-yl]piperidine-1-carboxylate]
chromatographic logP ([1]; pH 2.7): 4.3

Cc1cc(C(F)(F)F)nn1CC(=O)N1CCC(c2nc(C(=O)Cc3ccccc3)cs2)CC1 [Compound I-16]
log P [a] [2]: 3.36^[a]
efficacy [3]: 80%

CC(C)(C)C(=O)/C=C/c1csc(C2CCN(C(=O)Cn3nc(C(F)F)cc3C(F)F)CC2)n1 [Compound I-47]
log P [a] [2]: 3.45^[a]
efficacy [3]: 94%

Cc1cc(C(F)(F)F)nn1CC(=O)N1CCC(c2nc(CCC(=O)c3ccccc3Cl)cs2)CC1 [Compound I-21]
log P [a] [2]: 3.6^[a];

Cc1ccc(C)c(NC(=O)N2CCC(c3nc(/C=C/C(=O)c4c(F)cccc4F)cs3)CC2)c1 [Compound I-23]
log P [a] [2]: 3.56^[a]
efficacy [3]: 70%

Cc1cc(C(F)(F)F)nn1CC(=O)N1CCC(c2nc(C(=O)CC3CCCCC3)cs2)CC1 [Compound I-17]
log P [a] [2]: 4.13^[a];

Cc1cc(C(F)(F)F)nn1CC(=O)N1CCC(c2nc(C(=O)CC(C)(C)c3ccccc3)cs2)CC1 [Compound I-15]
log P [a] [2]: 4.08^[a]

Cc1cc(C(F)(F)F)nn1CC(=O)N1CCC(c2nc(C#CC(=O)c3cccc4ccccc34)cs2)CC1 [Compound I-3]
log P [a] [2]: 4.25^[a]

C#Cc1csc(C2CCN(C(=O)Cn3nc(C(F)(F)F)cc3C)CC2)n1 [XX-1, 1-[4-(4-Ethynyl-1,3-thiazol-2-yl)piperidin-1-yl]-2-[5-methyl-3-(trifluoromethyl)-1H-pyrazol-1-yl]ethanone]
chromatographic logP ([1]; pH 2.7): 2.61

Cc1cc(C(F)(F)F)nn1CC(=O)N1CCC(c2nc(C#CC(=O)C3CCCCC3)cs2)CC1 [Compound I-4]
log P [a] [2]: 4.15^[a]

CCOc1ccccc1C(=O)C#Cc1csc(C2CCN(C(=O)Cn3nc(C(F)(F)F)cc3C)CC2)n1 [Compound I-11, 1-(2-Ethoxyphenyl)-3-[2-(1-{[5-methyl-3-(trifluoromethyl)-1H-pyrazol-1-yl]acetyl}piperidin-4-yl)-1,3-thiazol-4-yl]prop-2-yn-1-one]
chromatographic logP ([1]; pH 2.7): 3.78
chromatographic logP [1, 4]: 3.76

Cc1cc(C(F)(F)F)nn1CC(=O)N1CCC(c2nc(C#CC(=O)c3ccco3)cs2)CC1 [Compound I-10]
log P [a] [2]: 2.92^[a]

Cc1cccc(C(=O)/C=C/c2csc(C3CCN(C(=O)Cn4nc(C(F)F)cc4C(F)F)CC3)n2)c1 [Compound I-38]
log P [a] [2]: 3.64^[a];
efficacy [3]: 95%

CC(C)(C)OC(=O)N1CCC(c2nc(C(=O)CC3CCCCC3)cs2)CC1 [IV-1, tert-Butyl 4-[4-(cyclohexylacetyl)-1,3-thiazol-2-yl]piperidine-1-carboxylate]
chromatographic logP ([1]; pH 2.7): 5.43

CC(C)(C)OC(=O)N1CCC(c2nc(C(O)CCc3ccccc3)cs2)CC1 (stereo not drawn) [XVI-1, tert-Butyl 4-[4-(1-hydroxy-3-phenylpropyl)-1,3-thiazol-2-yl]piperidine-1-carboxylate]
chromatographic logP ([1]; pH 2.7): 3.79

O=C(/C=C/c1csc(C2CCN(C(=O)Cn3nc(C(F)F)cc3C(F)F)CC2)n1)c1cccc(F)c1 [Compound I-41]
log P [a] [2]: 3.48^[a]
efficacy [3]: 95%

Cc1cc(C(F)(F)F)nn1CC(=O)N1CCC(c2nc(C(=O)Cc3ccccc3Br)cs2)CC1 [Compound I-13]
log P [a] [2]: 3.67^[a];

C#Cc1csc(C2CCN(C(=O)OC(C)(C)C)CC2)n1 [VI-1, tert-Butyl 4-(4-ethynyl-1,3-thiazol-2-yl)piperidine-1-carboxylate]
chromatographic logP ([1]; pH 2.7): 3.1

COc1ccc(C(=O)/C=C/c2csc(C3CCN(C(=O)Cn4nc(C(F)F)cc4C(F)F)CC3)n2)c(F)c1 [Compound I-48]
log P [a] [2]: 3.45^[a]
efficacy [3]: 94%

COc1ccccc1C(=O)C#Cc1csc(C2CCN(C(=O)Cn3nc(C(F)(F)F)cc3C)CC2)n1 [Compound I-2]
log P [a] [2]: 3.35^[a];

Cc1cccc(CC(=O)c2csc(C3CCN(C(=O)Cn4nc(C(F)F)cc4C(F)F)CC3)n2)c1C [Compound I-59]
log P [a] [2]: 3.71^[a]

O=C(/C=C/c1c(F)cccc1F)c1csc(C2CCN(C(=O)Cn3nc(C(F)F)cc3C(F)F)CC2)n1 [Compound I-62]
log P [a] [2]: 3.68^[a];

CCOc1ccccc1C(=O)CCc1csc(C2CCN(C(=O)Cn3nc(C(F)(F)F)cc3C)CC2)n1 [Compound I-20, 1-(2-Ethoxyphenyl)-3-[2-(1-{[5-methyl-3-(trifluoromethyl)-1H-pyrazol-1-yl]acetyl}piperidin-4-yl)-1,3-thiazol-4-yl]propan-1-one]
chromatographic logP [1, 4]: 3.7
chromatographic logP ([1]; pH 7.8): 3.68

O=C(CCc1ccccc1)c1csc(C2CCNCC2)n1 [II-2, 4-[4-(3-Phenylpropanoyl)-1,3-thiazol-2-yl]piperidinium chloride]
chromatographic logP ([1]; pH 2.7): 1.19

Cc1cccc(C)c1C(=O)/C=C/c1csc(C2CCN(C(=O)Cn3nc(C(F)F)cc3C(F)F)CC2)n1 [Compound I-63]
log P [a] [2]: 3.65^[a];

Cc1cc(C(F)(F)F)nn1CC(=O)N1CCC(c2nc(C#CC(=O)c3ccc(Cl)cc3Cl)cs2)CC1 [Compound I-6]
log P [a] [2]: 4.31^[a]

CO/N=C(/Cc1cccc(C)c1C)c1csc(C2CCN(C(=O)Cn3nc(C(F)F)cc3C(F)F)CC2)n1 [Compound I-61]
log P [a] [2]: 4.33^[a]
efficacy [3]: 95%

O=C(/C=C/c1csc(C2CCN(C(=O)Cn3nc(C(F)F)cc3C(F)F)CC2)n1)c1ccc(F)cc1 [Compound I-40]
log P [a] [2]: 3.43^[a]

COc1ccccc1C(=O)CCc1csc(C2CCN(C(=O)Cn3nc(C(F)(F)F)cc3C)CC2)n1 [Compound I-19]
log P [a] [2]: 3.34^[a]

Cc1cc(C(F)(F)F)nn1CC(=O)N1CCC(c2nc(C(=O)CCc3ccccc3)cs2)CC1 [Compound I-14, 1-[2-(1-{[5-Methyl-3-(trifluoromethyl)-1H-pyrazol-1-yl]acetyl}piperidin-4-yl)-1,3-thiazol-4-yl]-3-phenylpropan-1-one]
chromatographic logP [1, 4]: 3.64

O=C(CC1CCCCC1)c1csc(C2CCN(C(=S)Cn3nc(C(F)F)cc3C(F)F)CC2)n1 [Compound I-58, 1-[2-(1-{2-[3,5-Bis(difluoromethyl)-1H-pyrazol-1-yl]ethanethioyl}piperidin-4-yl)-1,3-thiazol-4-yl]-2-cyclohexylethanone]
chromatographic logP [1, 4]: 4.63
chromatographic logP ([1]; pH 7.8): 4.56

Cc1cc(C(F)(F)F)nn1CC(=O)N1CCC(c2nc(C(Cl)=CC(=O)c3ccccc3)cs2)CC1 (mixture of isomers) [Compound I-26]
log P [a] [2]: 4^[a]

CON=C(CC1CCCCC1)c1csc(C2CCN(C(=O)Cn3nc(C(F)F)cc3C(F)F)CC2)n1 [Compound I-60, 2-[3,5-Bis(difluoromethyl)-1H-pyrazol-1-yl]-1-{4-[4-(2-cyclohexyl-N-methoxyethanimidoyl)-1,3-thiazol-2-yl]piperidin-1-yl}ethanone]
efficacy [3]: 95%
chromatographic logP [1, 4]: 4.8

COc1ccccc1C(=O)C=C(Cl)c1csc(C2CCN(C(=O)Cn3nc(C(F)(F)F)cc3C)CC2)n1 (mixture of isomers) [Compound I-65]
log P [a][d] [2]: 3.96^[a][d];
log P [a][e] [2]: 3.79^[a][e]
efficacy [3]: 93%

Cc1cc(C(F)(F)F)nn1CC(=O)N1CCC(c2nc(C(=O)Cc3cccc4ccccc34)cs2)CC1 [Compound I-18]
log P [a] [2]: 3.87^[a]

CC(C)(C)OC(=O)N1CCC(c2nc(C(=O)CCc3ccccc3)cs2)CC1 [IV-2, tert-Butyl 4-[4-(3-phenylpropanoyl)-1,3-thiazol-2-yl]piperidine-1-carboxylate]
chromatographic logP ([1]; pH 2.7): 4.54

Cc1cc(C(F)(F)F)nn1CC(=O)N1CCC(c2nc(C#CC(=O)C(C)(C)C)cs2)CC1 [Compound I-8]
log P [a] [2]: 3.68^[a]

Cc1cc(C(F)(F)F)nn1CC(=O)N1CCC(c2nc(C#CC(=O)c3ccccc3Cl)cs2)CC1 [Compound I-5]
log P [a] [2]: 3.79^[a]

O=C(/C=C/c1csc(C2CCN(C(=O)Cn3nc(C(F)F)cc3C(F)F)CC2)n1)c1ccccc1 [Compound I-37]
log P [a] [2]: 3.31^[a];
efficacy [3]: 95%
